row,melting point [°C],SMILES
1,182 to 184,Cn1cccc1C(=O)C(C#N)C(=O)Nc1ccc(O)cc1 (stereo not given)
2,101 to 103,COC(=O)c1c(OC)cc(C(F)(F)F)nc1C(F)(F)F
3,209 to 211,COc1ccc(-c2ccc3c(c2)c2c(Cl)ccnc2n3S(=O)(=O)c2ccccc2)cc1
4,72 to 73,COc1ccc(C(=O)c2ccccc2C)cc1C
5,286 to 287,O=c1[nH]c2cnc(-c3ccccc3)nc2n1Cc1ccccc1
6,261 to 263,O=C(O)CCC(=O)N1CCN(c2ccncc2)CC1
7,114 to 115,CCOC(Nc1ccccc1)(OCC)c1ccnc(C(=O)c2ccccc2)c1
8,170 to 172,CCCc1c(OCCCCCC(=O)c2ccc3cc(O)c(O)cc3c2)ccc(C(=O)OCC)c1O
9,48 to 50,CCCCCCN1CCC[C@H](NCc2ccccc2OC)[C@@H]1c1ccccc1 (relative stereo)
10,155 to 158,COc1cc2c(cc1OC)C(C(S)(C#N)C(C)C(=O)O)=NCC2 (stereo not given)
11,249 to 251,Nc1nc2sc(CCC3CCCCC3)nn2c(=O)c1[N+](=O)[O-]
12,55 to 57,O=S(=O)(c1ccccc1)n1cc(CCOC2OC(CO)C(O)CC2O)c2ccccc21 (stereo not given)
13,259 to 262,Cn1c2ccc(Cl)cc2c2cc(C(=O)O)sc21
14,67 to 69,CC(=O)n1cc(C#N)c(-c2ccccc2C(F)(F)F)c1
15,139 to 141,CC(=O)N1CCC(Oc2ccc([N+](=O)[O-])cc2C)CC1
16,98 to 100,COc1ccc(SSC)cc1
17,181,CN(CCN1C(=O)c2ccccc2S1(=O)=O)C1COc2ccccc2O1 (stereo not given)
18,88 to 90,COc1cc(Nc2c(C#N)cnc3cc(OCCOCCN4CCNCC4)c(OC)cc23)c(Cl)cc1Cl
19,151 to 154,COc1ccc(C2CNC(=O)C2)cc1Br (stereo not given)

row,melting point [°C],SMILES
1,168 to 170,CSCc1cn(C)c2cc(Br)ccc2c1=O
2,176 to 178,COc1ccc(-c2cc(=Nc3c(C)cc(C)cc3C)n(C)c(=O)n2C)cc1N
3,> 280,O=C(Nc1ccccc1)NC1C(=O)Nc2ccccc2N(CC23CC4CC(CC(C4)C2)C3)C1=O (stereo not given)
4,44 to 52,O=C(Cl)N1CC(Oc2ccc(F)cc2)C1
5,217 to 220,N#Cc1cc([N+](=O)[O-])c2sc(N3CCC4(CC3)OCCO4)nc(=O)c2c1
6,158 to 164,CCCN(CCCc1c[nH]c2c(OC)cccc12)C1COc2c(F)ccc(C(N)=O)c2C1 (stereo not given)
7,125,Cc1cc(-n2ccnc2)c2cccc(OCc3c(Cl)ccc(S(=O)(=O)N4CCCC4C(=O)NCC4CCN(CC(=O)CC(=O)O)CC4)c3Cl)c2n1 (stereo not given)
8,121 to 122,COC(=O)c1ncoc1-c1ccc([N+](=O)[O-])cc1Cl
9,195 to 197,NC(=O)c1ccnc(-c2ccc(Oc3ccc(F)cc3)cc2)n1
10,120,CC(C(=O)O)c1cccc(NC(=O)NCC(=O)N2[C@@H](c3ccccc3)CC[C@H]2C(=O)OC(C)(C)C)c1 (stereo not given in full)
11,113,CCCCOc1nc(-c2ccco2)c2ncn(Cc3ccc(OC)cc3)c2n1
12,94 to 96,CC(C)C(=O)NN(C)C
13,260 to 263,COc1cc2c(cc1S(N)(=O)=O)CCN(C(C)=O)CC2
14,225 to 227,COc1ccc(S(=O)(=O)Nc2cc(NC(=O)c3ccc(Cl)c(Cl)c3)ccc2OC)cc1
15,162,COc1ccc(S(=O)(=O)Nc2c(C#N)cc(C)cc2C(=O)O)cc1
16,104 to 106,ON=C1CCN(CC2CCCO2)CC1 (stereo not given)
17,102,C=CCc1cc(O)c(CC=C)c(C=O)c1O
18,98 to 99,CCOC(=O)CCCOc1ccc(C(N)=O)c(OCC2CCCCC2)c1

row,SMILES,melting point [°C]
1,CC(=O)N[C@H](CO)C(=O)NCc1ccc(N=[N+]=[N-])cc1,161 to 163
2,ClCc1ncn2c1CN=C(c1ccccc1Cl)c1cc(Cl)ccc1-2,165
3,Oc1c(Cc2c[nH]cn2)cccc1C1=NCCN1,261
